≈ marks a conversion by molar mass, not a printed value. Like-named read-outs stand apart in the source and are kept apart here.
Tests used:
[1] = test system: planktonic cells of Staphylococcus aureus; test: Checkerboard combination assay, planktonic cells; type: cell-based; conditions: Staphylococcus aureus, S. aureus, mean
Procedure: (§1) The checkerboard assay, as previously described, was used for the determination of the fractional inhibitory concentration index (FICI). Briefly, 50 µL of MHB was distributed into each well of a 96-well microplate. ATBs were serially diluted along the abscissa, and NPs were serially diluted along the ordinate. Then, 100 µL of bacterial inoculum (1.5 × 10^6 CFU/mL) was added to each well and incubated at 37°C for 24 h. The final concentration ranged from 0.125 to 128 µg/mL for ATBs and 4–512 µg/mL for NPs. After incubation, a volume of 40 µL of INT solution (0.2 mg/mL) was added to each well, and the microplate was incubated at 37°C for 30 min. The wells containing bacterial inoculum and MHB were used as a positive control, while wells containing only MHB + 1% glucose were used as a negative control and used as a blank. Viable bacteria cells change the yellow dye of INT to a pink color. The MICs were considered to be the lowest NP concentrations that prevented the color change medium. Subsequently, the FICI was calculated according to the formula FICI = (MIC of the ATBs in combination/MIC of the ATBs alone) + (MIC of a natural substance in combination/MIC of the natural substance alone). FICI values were interpreted as follows: synergy when FICI ≤ 0.5; additive when 0.5 < FICI ≤ 1; indifference when 1 < FICI ≤ 4; and antagonism when FICI > 4.

[2] = test system: planktonic cells of Staphylococcus saprophyticus; test: Checkerboard combination assay, planktonic cells; type: cell-based; conditions: S. saprophyticus, mean; for MIC: Staphylococcus saprophyticus
Procedure: as §1

S. saprophyticus biofilm [3] = test: Biofilm eradication assay (MBEC, MTT); type: cell-based, Staphylococcus saprophyticus; conditions: Staphylococcus saprophyticus, 24 h; geometric mean, S. saprophyticus (n = 3)
Procedure: (§2) The determination of the biofilm eradication potential of NPs and ATBs was performed as previously described. Briefly, 100 µL of bacterial inoculum (1.5 × 10^6 CFU/mL) and 100 µL of MHB + 1% glucose were introduced into the microplate, incubated at 37°C for 24 h, and the microplate was gently emptied and washed three times with PBS. Then, 200 µL of ATBs or NPs at respective concentrations ranging from 8 to 1024 µg/mL and from 16 to 2048 µg/mL were incubated at 37°C for 24 h. Once incubation was completed, the microplate was processed as described above, and the percentage of biofilm eradication was calculated using the formula below. The minimal biofilm eradicating concentration (MBEC) was recorded as the lowest concentration of the test sample that reduces 100% of biofilm:(2) % biofilm eradication=ODcontrol−ODblank−ODtest−ODblank/ODcontrol−ODblank×100.

S. aureus biofilm = test: Biofilm inhibition assay (MBIC, MTT); type: cell-based, Staphylococcus aureus; conditions: Staphylococcus aureus, 24 h; geometric mean, S. aureus (n = 3)
Procedure: (§3) The biofilm formation inhibitory activity of NPs and ATBs was carried out according to the method previously described. A total of 100 µL of bacterial inoculum (1.5 × 10^6 CFU/mL) was used, and 100 µL of each sample was added to the microplate to achieve final concentrations ranging from 0.25 µg/mL to 128 µg/mL for ATBs and from 8 µg/mL to 1024 µg/mL for NPs. Then, the microplate was incubated at 37°C for 24 h. After incubation, the plates were gently emptied and washed three times with a phosphate buffer solution at pH 7.2. Then, the MTT solution (0.5 mg/mL) prepared in PBS was introduced into each well, and the microplate was further incubated at 37°C for 24 h. Untreated wells containing bacterial suspension and MHB supplemented with 1% glucose were considered positive controls, and wells containing only MHB+1% glucose without bacteria were used as blanks. After incubation, the MTT solution was aspirated, then 150 µL of DMSO was introduced to dissolve the formazan crystal formed by viable bacteria, and the optical density (OD) was measured at 570 nm using a microplate reader (VERSA-max). The percentage of biofilm inhibition was calculated using the formula below, and the minimal biofilm inhibitory concentration (MBIC) was recorded as the lowest concentration of NPs or ATBs that inhibited 100% of biofilm:(1) % biofilm inhibition=ODcontrol−ODblank−ODtest−ODblank/ODcontrol−ODblank×100.

S. saprophyticus biofilm [4] = test: Biofilm inhibition assay (MBIC, MTT); type: cell-based, Staphylococcus saprophyticus; conditions: Staphylococcus saprophyticus, 24 h; geometric mean, S. saprophyticus (n = 3)
Procedure: as §3

S. aureus = test: MIC and MBC, broth microdilution; type: cell-based, Staphylococcus aureus; conditions: Staphylococcus aureus, geometric mean, S. aureus (n = 3); for MBC: read-out: MBC; for MIC: read-out: MIC
Procedure: (§4) Seven clinical isolates of Staphylococcus spp. including 2 S. aureus, 3 S. saprophyticus, and 2 S. epidermidis were used. They were isolated from urine samples in our previous study. Two reference strains (S. aureus ATCC1026 and S. epidermidis ATCC35984) obtained from the American Type Culture Collection were also included. They were kept in the mixture of glycerol and Mueller Hinton Broth (MHB) (1:1) at −20°C, and the activation was achieved using the streak technique on Mueller Hinton agar (MHA) medium.
(§5) The MICs of ATBs and NPs were determined by the broth microdilution method as previously described. NPs and ATBs were, respectively, prepared at 4096 µg/mL and 512 µg/mL and serially diluted twofold with MHB in a 96-well microplate at a volume of 100 µL. Then, the wells were filled with 100 µL of inoculum (1.5 × 10^6 CFU/mL) to give final concentrations ranging from 1024 µg/mL to 0.5 µg/mL and 128 µg/mL to 0.062 µg/mL of NPs and ATBs, respectively. The microplates were incubated for 24 h at 37°C. Wells containing only bacterial inoculum were used as the negative control. After incubation, a volume of 40 µL of INT solution (0.2 mg/mL) was added to each well, and the microplate was incubated at 37°C for 30 min. Viable bacteria cells change the yellow dye of INT to a pink color. The MIC was considered as the lowest concentration of the sample at which there was no change in the coloration of the medium, corresponding to the complete inhibition of microbial growth.
(§6) All tests were performed in triplicate.

S. epidermidis biofilm [5] = test: Biofilm inhibition assay (MBIC, MTT); type: cell-based, Staphylococcus epidermidis; conditions: Staphylococcus epidermidis, 24 h; geometric mean, S. epidermidis (n = 3)
Procedure: as §3

S. saprophyticus = test: MIC and MBC, broth microdilution; type: cell-based, Staphylococcus saprophyticus; conditions: Staphylococcus saprophyticus, geometric mean, S. saprophyticus (n = 3); for MBC: read-out: MBC; for MIC: read-out: MIC
Procedure: as §4, §5, §6

S. epidermidis biofilm [6] = test: Biofilm eradication assay (MBEC, MTT); type: cell-based, Staphylococcus epidermidis; conditions: Staphylococcus epidermidis, 24 h; geometric mean, S. epidermidis (n = 3)
Procedure: as §2

MIC ([1]; 24 h, read-out: MIC alone, ATB) [mg/L] | MIC ([1]; read-out: MIC alone, ATB) [mg/L] | MIC ([2]; 24 h, read-out: MIC alone, ATB) [mg/L] | MIC ([2]; read-out: MIC alone, ATB) [mg/L] | MIC (S. aureus) [mg/L] | MIC (S. saprophyticus) [mg/L] | SMILES | minimal effective concentration (S. saprophyticus biofilm [3]) [µg/mL] | minimal effective concentration (S. aureus biofilm) [µg/mL] | minimal effective concentration (S. saprophyticus biofilm [4]) [µg/mL] | MBC (S. aureus; antibiotics) [mg/L] | minimal effective concentration (S. epidermidis biofilm [5]) [µg/mL] | MBC (S. saprophyticus; antibiotics) [mg/L] | minimal effective concentration (S. epidermidis biofilm [6]) [µg/mL] | further results
213 | 213 | 192 | 192 | 213 (≈ 470 µM) | 192 (≈ 423 µM) | C=CC1=C(C(=O)O)N2C(=O)[C@@H](NC(=O)/C(=N\OCC(=O)O)c3csc(N)n3)[C@H]2SC1 [Cefixime, cefixime] | 48 | 64 | 48 | > 128 | 64 | > 128 | 42.7 | –
6.16 | 6.16 | 32.2 | 32.2 | 6.16 (≈ 13.9 µM) | 32.2 (≈ 72.4 µM) | C[C@H]1c2cccc(O)c2C(=O)C2=C(O)[C@]3(O)C(=O)C(C(N)=O)=C(O)[C@@H](N(C)C)[C@@H]3[C@@H](O)[C@@H]21 [Doxycycline, doxycycline] | 9.33 | 2.16 | 0.5 | 32.7 (≈ 73.5 µM) | 3.08 | > 128 | 16 | –
86.7 | 86.7 | 22 | 22 | 86.7 (≈ 237 µM) | 22 (≈ 60.2 µM) | CC1(C)S[C@@H]2[C@H](NC(=O)[C@H](N)c3ccc(O)cc3)C(=O)N2[C@H]1C(=O)O [Amoxicillin, amoxicillin] | 9.33 | 1.5 | 9 | > 128 | 2.08 | > 128 | 16 | –
– | – | – | – | – | 171 (≈ 463 µM) | COc1cc(/C=C/C(=O)CC(=O)/C=C/c2ccc(O)c(OC)c2)ccc1O [Curcumin, curcumin] | 171 | 107 | 107 | – | 128 | – | 107 | MIC ([1]; 24 h, read-out: MIC alone, NPs): 235 mg/L; MIC ([1]; read-out: MIC alone, NPs): 235 mg/L; MIC alone, NPs ([2]; listed as Cur): 213.33 mg/L; MIC ([2]; 24 h, read-out: MIC alone, NPs): 149 mg/L; MIC ([2]; read-out: MIC alone, NPs): 149 mg/L; MIC (S. aureus; 24 h): 244 mg/L (≈ 661 µM); MBC (S. aureus; natural products): > 1020 mg/L; MBC (S. saprophyticus; natural products): > 1020 mg/L

Source: PMC12339163, “Combining Plant Bioactives With Antibiotics for Enhanced Antibiofilm Activity Against Uropathogenic Staphylococcus spp. and Cytotoxicity Evaluation” (Advances in Pharmacological and Pharmaceutical Sciences, 2025)
